SMILES strings stand for the structures.

In series [1] the target is T1, Human Vitamin D Binding Protein (hDBP) (Homo sapiens, UniProt P02774).
T1 sequence (P02774 17-474): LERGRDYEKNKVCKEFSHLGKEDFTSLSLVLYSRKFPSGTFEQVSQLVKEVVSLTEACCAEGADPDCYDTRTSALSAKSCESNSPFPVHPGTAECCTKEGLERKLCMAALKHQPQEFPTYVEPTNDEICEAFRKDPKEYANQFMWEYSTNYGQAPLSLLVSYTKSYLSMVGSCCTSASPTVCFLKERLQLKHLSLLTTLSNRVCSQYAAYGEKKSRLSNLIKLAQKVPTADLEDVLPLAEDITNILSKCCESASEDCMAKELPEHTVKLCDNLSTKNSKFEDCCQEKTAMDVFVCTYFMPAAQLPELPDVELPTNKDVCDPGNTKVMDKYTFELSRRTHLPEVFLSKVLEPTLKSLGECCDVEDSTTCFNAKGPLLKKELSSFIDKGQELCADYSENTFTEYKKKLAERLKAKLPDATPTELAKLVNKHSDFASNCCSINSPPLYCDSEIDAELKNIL
In words: Affinity for Human Vitamin D Binding Protein (hDBP), displacement of [3H]1α,25(OH)2D3. To be noted: relative affinity from concentration displacing 50% of [3H]1α,25(OH)2D3, 1α,25(OH)2D3 assigned 100%, 4° C. On the procedure:
The solution is incubated for 3 hours at 4° C. Final phase separation is obtained by adding 0.5 mL of cold destran-coated charcoal.

Series [2] deals with HL-60 cells. In words: Promyelocytic leukemia cells (HL-60), differentiation markers (NBT reduction assay). The class given is cell-based. As to conditions: relative to control 1α,25(OH)2D3 = 100. On the procedure: Selected compounds of the present invention are evaluated for their effect on cell proliferation. Falcon tissue chambers are seeded with 4×10^4 cells/cm^2 of HL-60 cells using RPMI 1640 medium supplemented with 20% FCS and gentamycin (50 μg/mL) in a final cell volume of 5 mL. The cultures are maintained at 37° C. in an atmosphere of humidified air containing 5% CO2. […] After 4 days, the dishes are shaken to lose adherent cells. The cells are then washed twice in RPMI medium, counted, and then assayed for differentiation markers (NBT reduction assay). Superoxide production is measured as NBT reducing activity as described by Ostrem. V. K et al. Proc Natl Acad Sci USA,. 1987 84: 2610-2614. HL-60 cells at 1×10^6/mL are mixed with an equal volume of freshly prepared solution of phorbol 12-myristate 13-acetate (200 ng/mL) and NBT ([…]) and incubated for 30 minutes at 37° C. The percentage of cells containing black formazan deposits is determined using a hemacytometer.

Series [3] deals with MCF-7 cells. In words: Measurement of cell proliferation, breast carcinoma cells MCF-7, [3H]thymidine incorporation. The class given is cell-based. To be noted: cell proliferation ([3H]thymidine incorporation), relative to control 1α,25(OH)2D3 = 100. On the procedure: Selected compounds of the present invention are evaluated for their effect on cell proliferation. Malignant MCF-7 cells are cultured in DMEM nutrient mix F12 (HAM) medium which is supplemented with 10% heat inactivated FCS, glutamine (2 mM), penicillin (100 units/mL) and streptomycin (0.1 mg/mL). The cultures are maintained at 37° C. in an atmosphere of humidified air containing 5% CO2. The MCF-7 cells are seeded at approximately 5×10^3 cells/well in the DMEM modified medium in a 96-well microtiter plate. […] Finally, 1 μCi of [^3H]thymidine is added to each well and the cells are harvested after a further 4 hour incubation period. The cells are harvested with a Parckard Harvester and the cell count measured by a Packard Topcount System.

Series [4] concerns the target T2, Vitamin D Receptor (VDR) (Sus scrofa, UniProt A3RGC1).
T2 sequence (A3RGC1 1-427): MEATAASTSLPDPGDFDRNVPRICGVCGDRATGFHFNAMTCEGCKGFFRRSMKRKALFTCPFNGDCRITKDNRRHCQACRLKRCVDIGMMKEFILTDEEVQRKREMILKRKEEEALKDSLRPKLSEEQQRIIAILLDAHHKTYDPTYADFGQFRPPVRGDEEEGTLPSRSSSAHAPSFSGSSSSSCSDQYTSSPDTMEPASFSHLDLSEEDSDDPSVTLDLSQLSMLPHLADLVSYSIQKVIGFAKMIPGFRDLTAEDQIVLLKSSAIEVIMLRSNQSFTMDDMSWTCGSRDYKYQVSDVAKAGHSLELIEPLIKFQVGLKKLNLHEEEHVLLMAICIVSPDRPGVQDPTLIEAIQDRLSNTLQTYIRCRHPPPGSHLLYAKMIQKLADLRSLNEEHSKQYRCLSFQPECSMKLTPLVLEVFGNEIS
To be noted: relative affinity from concentration displacing 50% of [3H]1α,25(OH)2D3; 1α,25(OH)2D3 assigned 100%; 4° C., 20 hours.

A short description of series [5]: In vivo determination of calcium levels (serum calcium, femur calcium). On the set-up: species or system NMRI mice. To be noted: for Femur Ca: NMRI mice, IP daily for 7 consecutive days. The source says:
. Table VII presents the serum and femur calcium levels in mice after intraperitoneal injections after 7 consecutive days.

As for `CC(C)(O)CCCC1CCC2(CCC/C(=C/C=C3C[C@@H](O)C[C@H](O)C3)C2)C1` (stereo in doubt) [(1R,3R)-5-{2-[(2S, 5R)-2-(4-hydroxy-4-methylpentyl)-spiro[4.5]dec-(7Z)-ylidene]-ethylidene}-cyclo-hexane-1,3-diol], in series [1], the hDBP binding % was 3%. For the same compound, the HL-60 in series [2] was 0.9. The MCF-7 in series [3] came out at 8. Also, in series [4], the VDR binding % came to 0.4%.
With `C=C1/C(=C\C=C2/CCC[C@]3(C)[C@@H]([C@H](C)CCCC(C)(C)O)CC[C@@H]23)C[C@@H](O)C[C@@H]1O` [1α,25(OH)2D3, 1α,25-dihydroxyvitamin D3], the HL-60 in series [2] was determined as 100. The results for the “Femur Ca” value in series [5] (0.1 μg/kg/d), in series [5] (0.2 μg/kg/d) and in series [5] (0.4 μg/kg/d) were 10.9 mg, 10.3 mg and 8.9 mg, respectively. Besides, the estimated serum calcium in series [5] (as compared with 1α,25(OH)2D3 (control assigned 100%), mice, IP daily, 7 consecutive days) is 100%.
Regarding `CC(C)(O)CCC[C@H]1CC[C@]2(CCC/C(=C\C=C3C[C@@H](O)C[C@H](O)C3)C2)C1` [(1R,3R)-5-{2-[(2R,5S)-2-(4-Hydroxy-4-methyl-pentyl)-spiro[4.] [(1R,3R)-5-{(E)-(2R,5S))-2-[2-(4-hydroxy-4-methylpentyl)-spiro[4.5]dec-7-ylidene]-ethylidene}-cyclohexane-1,3-diol], the hDBP binding % in series [1] was 0%. The compound also had an HL-60 in series [2] of 4. Also, in series [3], the MCF-7 is given as 9. For the same compound, the VDR binding % in series [4] is on record as 0.4%.
`CC(C)(O)CCC[C@H]1CC[C@]2(CCC/C(=C\C=C3C[C@@H](O)C[C@H](O)C3)C2)C1` [(1R,3R)-5-{2-[(2S,5R)-2-(4-Hydroxy-4-methyl-pentyl)-spiro[4.] [(1R,3R)-5-{2-[(2S,5R)-2-(4-hydroxy-4-methyl-pentyl)-spiro[4.5]dec-(7E)-ylidene]-ethylidene}-cyclohexane-1,3-diol] returned a hDBP binding % in series [1] of 3%. Moreover, the HL-60 in series [2] was determined as 10. In addition, the MCF-7 in series [3] amounted to 50. In series [4], the VDR binding % stood at 0.8%.
Take `CC(C)(O)CCC[C@H]1CC[C@@]2(CCC/C(=C\C=C3C[C@@H](O)C[C@H](O)C3)C2)C1` [(1R,3R)-5-{2-[(2S,5S)-2-(4-Hydroxy-4-methyl-pentyl)-spiro[4.5]dec-(7E)-ylidene]-ethylidene}-cyclo-hexane-1,3-diol]: the hDBP binding % in series [1] is 0%. This compound gave an HL-60 in series [2] of 8. Also, the MCF-7 in series [3] is 20. Also, the VDR binding % in series [4] was found to be 0.7%.
Turning to `CC(C)(O)CCC[C@H]1CC[C@@]2(CCC/C(=C/C=C3C[C@@H](O)C[C@H](O)C3)C2)C1` [(1R,3R)-5-{2-[(2S,5S)-2-(4-Hydroxy-4-methyl-pentyl)-spiro[4.5]dec-(7Z)-ylidene]-ethylidene}-cyclo-hexane-1,3-diol], the hDBP binding % in series [1] was found to be 0%. This compound also came in with an HL-60 in series [2] of 0.5. The MCF-7 in series [3] came out at 3. Also, in series [4], the VDR binding % is on record as 0%.
On to `CC(C)(O)CCC[C@@H]1CC[C@]2(CCC/C(=C\C=C3C[C@@H](O)C[C@H](O)C3)C2)C1` [(1R,3R)-5-{(E)-(2R,5R))-2-[2-(4-hydroxy-4-methylpentyl)-spiro[4.5]dec-7-ylidene]-ethylidene}-cyclohexane-1,3-diol], for which the hDBP binding % in series [1] is listed as 3%. The compound further returned an HL-60 in series [2] of 200. This compound came in with an MCF-7 in series [3] of 450. This compound also showed a VDR binding % in series [4] of 10%. The “less calcemic than the control” value in series [5] (mouse, in vivo) is reported as “approximately 200 times”. Also, the estimated serum calcium in series [5] (mouse, in vivo, ip) was 0.5%.
On to `CC(C)(O)CCC[C@@H]1CC[C@]2(CCC/C(=C/C=C3C[C@@H](O)C[C@H](O)C3)C2)C1` [(1R,3R)-5-{(Z)-(2R,5R))-2-[2-(4-hydroxy-4-methylpentyl)-spiro[4.5]dec-7-ylidene]-ethylidene}-cyclohexane-1,3-diol], for which, in series [1], the hDBP binding % is recorded as 3%. Further, in series [2], the HL-60 turned out to be 8. The compound also registered an MCF-7 in series [3] of 75. The compound also returned a VDR binding % in series [4] of 0.8%.
Consider `CC(C)(O)CCC[C@H]1CC[C@]2(CCC/C(=C/C=C3C[C@@H](O)C[C@H](O)C3)C2)C1` [(1R,3R)-5-{(Z)-(2R,5S))-2-[2-(4-hydroxy-4-methylpentyl)-spiro[4.5]dec-7-ylidene]-ethylidene}-cyclohexane-1,3-diol], for which the hDBP binding % in series [1] came to 0%. This compound came in with an HL-60 in series [2] of less than 1. Further, in series [3], the MCF-7 is given as 4. In series [4], this compound had a VDR binding % of 0%.

Values taken from patent US7888338B2, “7-(2-cyclohexylidene-ethylidene)-spiro[4.5]decanes” (K.U. Leuven Research & Development, priority 2004, dated 2011).
